From patent publication US5426106A, “Pyrrolo-pyridazinone derivatives” (Merck Sharp & Dohme Limited, priority 1992, dated 1995) come the findings set out here.

SMILES strings stand for the structures. Bounds are passed on as bounds.

For one assay, the system named is NMDA receptors. The assay can be described thus: Cortical slice studies, responses to NMDA in rat cortical slice. The class given is cell-based. As to conditions: from righthand shift in NMDA concentration-response curves, read-out: apparent equilibrium constant (Kb) in response to NMDA. The text has this: (§1) The compounds useful in this invention potently and selectively block responses to NMDA and/or AMPA in a brain slice from rat cortex, and inhibit the binding of agonists and antagonists to the strychnine-insensitive site present on the NMDA receptor and/or AMPA binding to rat forebrain membranes.
The effects of compounds of the invention on responses to NMDA and AMPA can be assessed using the rat cortical slice as described by Wong et al., Proc. Natl. Acad. Sci. USA, 1986, 83, 7104. The apparent equilibrium constant (Kb) is calculated from the righthand shift in the NMDA or AMPA concentration-response curves produced by the compound under test.

The target in assay [1] is T1, strychnine-insensitive site present on the NMDA receptor (Rattus norvegicus, UniProt P35439).
T1 construct: NMDA receptor of rat forebrain membranes; from tissue; host or cells: rat forebrain membranes
The assay can be described thus: Displacement of 3H-L-689,560 binding to the strychnine-insensitive site of rat forebrain membranes. As to conditions: 3H-L-689,560, rat forebrain membranes; read-out: concentration required to displace 50% of the specific binding (IC50).
Text: as §1
The ability of test compounds to displace ^3 H-L-689,560 (trans-2-carboxy-5,7-dichloro-4-phenylaminocarbonylamino-1,2,3,4-tetrahydroquinoline) binding to the strychnine-insensitive site present on the NMDA receptor of rat forebrain membranes can be determined by the method of Grimwood et al., Proceedings of The British Pharmacological Society, July 1991, Abstract C78.

In the case of `O=c1[nH]n2cccc2c(O)c1-c1ccccc1` [Example 1, 4-Hydroxy-3-phenylpyrrolo[1,2-b]pyridazin-2(1H)-one], the Kb in the assay with NMDA receptors was under 150 µM. Moreover, in assay [1], the IC50 is under 50 µM.
